5 compounds from patent EP3569229A1, “PROPHYLACTIC AND/OR THERAPEUTIC AGENT FOR DISEASES ASSOCIATED WITH AMPA RECEPTORS” (Public University Corporation Yokohama City University, priority 2017, dated 2018) can be followed below.

The target in assay [1] is AMPA receptors. Kind of assay: AMPA receptor binding test (in vitro autoradiography method). Set-up: species or system SD rats. Conditions: acute rat brain section including the striatum; [^11C] K-2; Fig. 1. The protocol:
As rats, adult male SD rats (Charles River, Japan) which were […] were used. An acute brain section which included the striatum and whose thickness was 200 µm was produced, was placed on a cell strainer and was left in an oxygenated ACSF (artificial cerebrospinal fluid) for 60 minutes. 12 ml of 100 µM PEPA (ACSF containing 1% DMSO) was adjusted, and [^11C] K-2 was added thereto so as to achieve 20 nM, and the resultant solution was left for 60 minutes. After the reaction, the resultant solution was washed with the ACSF for 10 seconds three times, and was finally washed with distilled water for 10 seconds. The cell strainer was cut out so as to be slightly larger than the brain section after the reaction, and was exposed to an imaging plate for 2 hours. The imaging plate after the exposure was imaged with Typhoon (GE Healthcare Japan) (resolution of 25 pixels).

Assay [2] deals with AMPA receptors. Kind of assay: AMPA receptor binding test (electrophysiological verification, whole-cell recording of AMPA current in acute hippocampal section). The assay is classed as cell-based, SD rats. Particulars: pyramidal cell in CA1, compound administered for 15 minutes, Fig. 2. Here is the method:
Male SD rats which were 7 to 8 weeks old were used. The rat was decapitated under anesthesia with isoflurane, and an acute brain section which included the hippocampus and whose thickness was 400 µm was produced with a vibratome (VT1000; Leica Camera AG). The section was left in the ACSF at room temperature for 60 minutes, and then an AMPA current was measured by a whole-cell recording method. Under conditions in which the ACSF was refluxed at a rate of 3 ml/minute, only the AMPA current was isolated by administration of picrotoxin and APV. An exciting electrode was placed on a Schaffer fiber, and a recording electrode was placed on a pyramidal cell in CA1. The whole-cell recording was performed with a potential fixed to -80 mV, and a stimulus of 100 microseconds was applied every 30 seconds. The AMPA current in a ground state was recorded for 5 minutes, then K-2 or K-4 was administered for 15 minutes and thereafter the AMPA current was recorded for 30 minutes. When the section was left and when the section was refluxed, the ACSF was saturated with 95% O2/5% CO2 and was then used, and the composition of the ACSF was as follows; 119 mM NaCl, 2.5 mM KCl, 2.5 mM CaCl2, 1.5 mM MgSO4, 26 mM NaHCO3 and 1 mM NaH2PO4. […]

Assay [3] has as its system WKY rat. Kind of assay: Forced swimming test using rat. The assay is classed as in vivo. Particulars: acute administration, intravenous, 30 minutes before test; 1.0 mg/kg; Figs. 8, 9 and 10. The protocol:
In a forced swimming test, AMPA receptor-binding compounds K-2 and K-4 were dissolved in 100% DMSO (Nacalai Tesque, Inc. Japan) so as to have a concentration of 2.1 mM, were diluted with saline immediately before being administered (15% DMSO, 320 µM) and were intravenously administered to the rat with an administered amount of 5 µl/weight (g) such that the administered amount fell within a range of 1 mg/kg to 1.5 mg/kg.
In all animal experiments, the deliberation and the approval of the animal experiment committee in Yokohama City University were received (approval number: F-A-15-051). As rats, adult male Wistar rats which were 6 to 10 weeks old and Wistar Kyoto rats (WKY rats) which were depression model rats (Charles River, Japan) were used. In order to acquire a route for the repeated administration of K-2, a jugular vein cannula indwelling surgery was performed a week before the experiment. The rat was made to fall sleep with isoflurane (DS Pharma Animal Health, Japan), and thereafter while anesthesia was maintained at an isoflurane concentration of 1.5% (air 2 L/minute), the jugular vein cannula indwelling surgery was performed. The skin of the neck was incised about 3 cm such that subcutaneous fat was opened, and thus the jugular vein was exposed. A needle to which a cannula tube was fitted was made to penetrate the jugular vein, then the cannula tube was removed from the needle and the tip of the cannula tube was inserted 2.5 cm into the jugular vein so as to be fixed near the insertion portion with sutures. The opposite side of the cannula tube was exposed to the outside of the body through the back of the rat, a plug was fitted so as to prevent backflow and the opened skin was sutured. After the completion of the surgery, the rat was returned to a home cage.
The forced swimming test was performed in a pre-administration experiment on the day before the administration of the drug, in an acute administration experiment on the first day of the administration of the drug and in a chronic administration experiment on the seventh day of the administration of the drug. […]

For the compound `CN(CCSc1cc(F)c(OCC(N)=O)c(F)c1)S(=O)(=O)c1ccccc1` [K-2, {4-[2-(benzenesulfonyl-methyl-amino)-ethylsulfanil]-2,6-difluoro-phenoxy}-acetamide], the dissociation constant (Kd) in assay [1] turned out to be 47.9 nM. Further, the “binding affinity to the AMPA receptors” value in assay [2] was “indicated binding affinity”.

Consider `CN(C)C(=O)COc1c(F)cc(SCCN(C)S(=O)(=O)c2ccccc2)cc1F` [K-4, {4-[2-(benzenesulfonyl-methyl-amino)-ethylsulfanil]-2,6-difluoro-phenoxy}-N,N-dimethyl-acetamide], for which the “binding affinity to the AMPA receptors” value in assay [2] is listed as “indicated binding affinity”.

On to `CN(C)C(=O)COc1c(F)cc(SCCN(C)S(=O)(=O)c2ccc(F)cc2)cc1F` [K-26, {4-[2-(4-fluoro-benzenesulfonyl-methyl-amino)-ethylsulfanil]-2,6-difluoro-phenoxy}-N,N-dimethyl-acetamide], for which the immobility time result in assay [3] is listed as “tendency that the immobility time was lower”.

Regarding `CCN(CC)C(=O)COc1c(F)cc(SCCN(C)S(=O)(=O)c2ccccc2)cc1F` [K-30, {4-[2-(benzenesulfonyl-methyl-amino)-ethylsulfanil]-2,6-difluoro-phenoxy}-N,N-diethyl-acetamide], in assay [3], the immobility time result is “tendency that the immobility time was lower”.

For `CNC(=O)COc1c(F)cc(SCCN(C)S(=O)(=O)c2ccccc2)cc1F` [K-32, {4-[2-(benzenesulfonyl-methyl-amino)-ethylsulfanil]-2,6-difluoro-phenoxy}-N-methyl-acetamide], the immobility time entry in assay [3] is reported as “tendency that the immobility time was lower”.

The Kd is a measure of binding affinity in units of concentration. Low values mean a tighter complex, high ones a looser complex.
